In patent US20040162247A1, “Therapeutic agent or osteoporosis comprising an active ingredient of quercetin derivatives” (priority 2000, published 2004):

Columns and labels:
[1] = test system: human osteoblast-like cell line Saos-2; assay: Cell proliferation of Saos-2 cells, MTT method; assay type: cell-based; conditions: for MTT assay (% of control group): Saos-2, 3 days
Method: Saos-2 cell line which has similar properties to osteoblasts was obtained from Korean Cell Line Bank affiliated to the Cancer Research Institute of School of Medicine, Seoul National University.
Saos-2 cells were seeded in a RPMI 1640 medium (Gibco BRL, U.S.A.) supplemented with 10% (v/v) FBS, 100 unit/ml penicillin, 100 gg/ml streptomycin and grown to form a monolayer in an incubator at 37° C. under an environment of 5% (v/v) CO2 and saturated humidity. The culture was fed with fresh medium 2 to 3 times a week and subcultured once a week using 0.25% (w/v) trypsin.
Saos-2 cells were distributed into a 96-well plate (20,000 cells/well) and quercetin in 1% DMSO was added to a final concentration of 10-2 to 10^−9 mg/ml, 6 wells per each concentration. As a control group, cells without quercetin were used, and as a comparative group, the cells treated with various concentrations of genistein, being studied as a therapeutic agent for osteoporosis, were used. Cells were grown in an incubator at 37° C. for 3 days and incubated 4 more hours under the same condition after adding MTT (3-[4,5-dimethylthiazol-2-yl]-2,5-diphenyltetrazolium bromide, Triazolyl Blue) to a concentration of 0.05 mg/ml. Then, purple colored for-mazan formed in proportion to the number of viable cells was dissolved in DMSO and measured OD at 550 nm employing ELISA reader.
Cell proliferation rate (%) was evaluated by calculating the ratio of the OD of quercetin added well to the OD of control well, wherein, average value of ODs from 6 wells treated with the same concentration of quercetin was employed (see: Table 1).
cell proliferation rate (%)={(average value of OD at 550 nm of quercetin-treated wells—average value of OD at 550 nm of empty wells)/average value of OD at 550 nm of control wells}×100

[2] = test system: ALP activity in osteoblasts (Saos-2); assay: Alkaline phosphatase (ALP) activity in osteoblasts; assay type: cell-based, human; conditions: for ALP activity (% of control group): Saos-2, 3 days
Method: Since osteoblasts have cell specific alkaline phosphatase activity, the effect of quercetin of the invention on ALP activity in osteoblasts was evaluated as follows: the number of cells, concentration of tested agent, and culture condition were same as those used in MTT experiment of Example 1-2, and cells were harvested after 3 day-incubation. Genistein was used as a comparative agent. ALP activity was evaluated by analysing changes of OD at 405 nm result from hydrolysis of p-nitrophenylphosphate to p-nitrophenol and phosphate (see: Table 1).

ovariectomized rats [3] = assay: Trabecular bone area of tibia in ovariectomized rats;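 for Change Rate (%) of TBA of tibia, of control group: control group rats were ovariectomized and are not the sham group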; assay type: in vivo, Female SD (Sprague-Dawley) rats; conditions: OVX rats, 9 weeks i.p. (E2 1 μg/kg/day; quercetin, genistein 10 mg/kg/day); for Change Rate (%) of TBA of tibia, of control group: control group = 100
Method: (§1) Trabecular bone area (TBA) of lumbar and tibia removed from the rats of each group which was treated with various agents for 9 weeks were measured as follows: that is, using a digitalizer of quantitative image analysis system (Wild Leitz Co.), image of each trabecula was obtained on computer monitor by drawing a contour of the trabecula, and then, using a computer, calculated were average areas of trabeculae within a rectangle of 2×10^6 μm^2 area wherein the width is about ⅔ of the length of growth plate which located underneath of growth plate at proximity of tibia. Also, following the number of trabeculae within the rectangle were obtained, average area was multiplied by the number of trabeculae to obtain trabecular bone area of each sample bone, which was analyzed statistically (see: Table 5).

ovariectomized rats [4] = assay: Trabecular bone area of lumbars in ovariectomized rats;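 for Change Rate (%) of TBA of lumbars, of control group: control group rats were ovariectomized and are not the sham group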; assay type: in vivo, Female SD (Sprague-Dawley) rats; conditions: OVX rats, 9 weeks i.p. (E2 1 μg/kg/day; quercetin, genistein 10 mg/kg/day); for Change Rate (%) of TBA of lumbars, of control group: control group = 100
Method: as §1
TBAs of lumbars removed from the animal treated with test agents for 9 weeks were measured employing the same method above (see: Table 6).

ovariectomized rats [5] = assay: Complete blood count in ovariectomized rats; assay type: in vivo, Female SD (Sprague-Dawley) rats; conditions: rat, in vivo
Method: (§2) When test agents were administered, for a certain period of time before and after administration, 1.5 ml of blood was sampled from tail vein using a catheter (B.D Co.: 24 G) and subjected to complete blood count (Coulter Co.: JT) and biochemical analyses of plasma (Crone Co.: Airon® 200). During autopsy, blood was sampled from caudal venae cavae and subjected to the analyses above. And then, each sample was frozen to store for measurement of trabecular bone area of femur and examination of internal organs.
Complete blood count which reflects the condition and abnormality of the body was measured to find out abnormality in test animals caused by administrtion of agents. That is, to find out changes in hematopoiesis of test rats, measured were red blood cell (RBC) count, concentration of hemoglobin (Hb) and hematocrit (Ht) of-blood samples obtained from the rats prior to operation and the rats 10 weeks after administrating agents following operation, and to find out changes in immune system such as inflammation and necrosis of tissues, measured were white blood cell count, lymphocyte count, monocyte count, and granulocyte count (see: Table 7).

ovariectomized rats [6] = assay: Biochemical parameters in plasma of ovariectomized rats; assay type: in vivo, Female SD (Sprague-Dawley) rats; conditions: rat, in vivo
Method: as §2
Since blood reflects the condition of body, safety of quercetin in the body was evaluated by measuring biochemical parameters: that is, blood samples were obtained from the rat prior to operation, one week after operation, and 10 weeks after operation, and measured were levels of alkaline phosphatase (ALP), calcium, inorganic phosphate, blood urea nitrogen (BUN), creatinin, total cholesterol, HDL-cholesterol and LDL-cholesterol (see: Table 8).

**Q.** O=c1c(O)c(-c2ccc(O)c(O)c2)oc2cc(O)cc(O)c12 [Quercetin, quercetin] was tested. Which “Cell proliferation by MTT method versus control cells (in words)” value ([1]; Saos-2, 1×10^−9 to 1×10^−3 mg/ml) did it give?
**A.** The value was “did not show any difference from the control cells”.

**Q.** And the “MTT assay (% of control group)” value ([1]; 1 × 10^−2 mg/ml)?
**A.** The value was 108.6 ± 2.2 % of control group.

**Q.** What about the “MTT assay (% of control group)” value ([1]; 1 × 10^−2 mg/ml, listed as quercetin) of the same molecule?
**A.** The value was 109 % of control group.

**Q.** What about the “MTT assay (% of control group)” value ([1]; 1 × 10^−3 mg/ml) of the same molecule?
**A.** Its value is 98.3 ± 0.8 % of control group.

**Q.** And the “MTT assay (% of control group)” value ([1]; 1 × 10^−4 mg/ml)?
**A.** The value was 96.5 ± 0.8 % of control group.

**Q.** What about the “MTT assay (% of control group)” value ([1]; 1 × 10^−5 mg/ml) of the same molecule?
**A.** Its value is 95.8 ± 1.1 % of control group.

**Q.** What about the “MTT assay (% of control group)” value ([1]; 1 × 10^−6 mg/ml) of the same molecule?
**A.** Its value is 96.0 ± 1.0 % of control group.

**Q.** And the “MTT assay (% of control group)” value ([1]; 1 × 10^−7 mg/ml)?
**A.** Its value is 98.6 ± 1.0 % of control group.

**Q.** And the “MTT assay (% of control group)” value ([1]; 1 × 10^−8 mg/ml)?
**A.** The value was 93.9 ± 0.8 % of control group.

**Q.** What about the “MTT assay (% of control group)” value ([1]; 1 × 10^−9 mg/ml) of the same molecule?
**A.** The value was 93.1 ± 0.8 % of control group.

**Q.** What about the “ALP activity (% of control group)” value ([2]; 1 × 10^−2 mg/ml) of the same molecule?
**A.** Its value is 106.1 ± 4.3 % of control group.

**Q.** What about the “ALP activity (% of control group)” value ([2]; 1 × 10^−3 mg/ml) of the same molecule?
**A.** Its value is 107.3 ± 1.5 % of control group.

**Q.** What about the “ALP activity (% of control group)” value ([2]; 1 × 10^−4 mg/ml) of the same molecule?
**A.** The value was 113.5 ± 2.3 % of control group.

**Q.** And the “ALP activity (% of control group)” value ([2]; 1 × 10^−5 mg/ml)?
**A.** Its value is 116.5 ± 3.7 % of control group.

**Q.** What about the “ALP activity (% of control group)” value ([2]; 1 × 10^−6 mg/ml) of the same molecule?
**A.** The value was 127.2 ± 3.5 % of control group.

**Q.** And the “ALP activity (% of control group)” value ([2]; 1 × 10^−6 mg/ml, listed as quercetin)?
**A.** Its value is 127 % of control group.

**Q.** What about the “ALP activity (% of control group)” value ([2]; 1 × 10^−7 mg/ml) of the same molecule?
**A.** Its value is 101.2 ± 3.1 % of control group.

**Q.** And the “ALP activity (% of control group)” value ([2]; 1 × 10^−8 mg/ml)?
**A.** Its value is 104.4 ± 3.9 % of control group.

**Q.** And the “ALP activity (% of control group)” value ([2]; 1 × 10^−9 mg/ml)?
**A.** Its value is 98.1 ± 0.0 % of control group.

**Q.** And the “ALP activation effect relative to genistein” value ([2]; maximum at 1×10^−6 mg/ml (quercetin) versus 1×10^−4 mg/ml (genistein))?
**A.** Its value is “about 100 fold”.

**Q.** And the “TBA (trabecular bone area) of tibia” value (ovariectomized rats [3])?
**A.** Its value is 55.52 ± 7.68 ×10^4 μm^2.

**Q.** And the “Change Rate (%) of TBA of tibia, of control group” value (ovariectomized rats [3])?
**A.** Its value is 160.34 ± 22.17 %.

**Q.** And the “Change Rate (%) of TBA of tibia, of control group” value (ovariectomized rats [3]; listed as quercetin)?
**A.** Its value is 160%.

**Q.** And the “TBA (trabecular bone area) of lumbars” value (ovariectomized rats [4])?
**A.** Its value is 87.38 ± 4.53 ×10^4 μm^2.

**Q.** What about the “Change Rate (%) of TBA of lumbars, of control group” value (ovariectomized rats [4]) of the same molecule?
**A.** Its value is 129.40 ± 6.71 %.

**Q.** And the “Change Rate (%) of TBA of lumbars, of control group” value (ovariectomized rats [4]; listed as quercetin)?
**A.** The value was 129%.

**Q.** And the “Concentration of hemoglobin(Hb)” value (ovariectomized rats [5])?
**A.** The value was 16.00 ± 0.30 g/dL.

**Q.** What about the Granulocyte count (ovariectomized rats [5]) of the same molecule?
**A.** Its Granulocyte count is 2.80 ± 0.30 ×10^3 cells/μl.

**Q.** What about the “Hematocrit(Ht)” value (ovariectomized rats [5]) of the same molecule?
**A.** Its value is 43.62 ± 0.83%.

**Q.** What about the Lymphocyte count (ovariectomized rats [5]) of the same molecule?
**A.** The Lymphocyte count was 16.78 ± 3.52 ×10^3 cells/μl.

**Q.** What about the Monocyte count (ovariectomized rats [5]) of the same molecule?
**A.** The Monocyte count was 0.65 ± 0.07 ×10^3 cells/μl.

**Q.** What about the “Red blood cell(RBC) count” value (ovariectomized rats [5]) of the same molecule?
**A.** The value was 7.29 ± 0.15 ×10^6 cells/μl.

**Q.** What about the “White blood cell count” value (ovariectomized rats [5]) of the same molecule?
**A.** The value was 20.28 ± 3.77 ×10^3 cells/μl.

**Q.** What about the “White blood cell count, before versus after operation (in words)” value (ovariectomized rats [5]) of the same molecule?
**A.** Its value is “did not show any changes”.

**Q.** And the “Concentration of ALP in plasma” value (ovariectomized rats [6])?
**A.** Its value is 232.83 ± 20.27 U/dL.

**Q.** And the “Concentration of HDL-cholesterol in plasma” value (ovariectomized rats [6])?
**A.** Its value is 53.38 ± 3.14 mg/dL.

**Q.** And the “Concentration of LDL-cholesterol in plasma” value (ovariectomized rats [6])?
**A.** The value was 24.17 ± 3.13 mg/dL.

**Q.** What about the “Concentration of blood urea nitrogen (BUN)” value (ovariectomized rats [6]) of the same molecule?
**A.** The value was 17.05 ± 0.60 mg/dL.

**Q.** What about the “Concentration of calcium in plasma” value (ovariectomized rats [6]) of the same molecule?
**A.** Its value is 10.73 ± 0.48 mg/dL.

**Q.** And the “Concentration of creatinin in plasma” value (ovariectomized rats [6])?
**A.** Its value is 0.57 ± 0.05 mg/dL.

**Q.** And the “Concentration of inorganic phosphate in plasma” value (ovariectomized rats [6])?
**A.** Its value is 6.79 ± 0.66 mg/dL.

**Q.** What about the “Concentration of total cholesterol in plasma” value (ovariectomized rats [6]) of the same molecule?
**A.** The value was 77.55 ± 5.13 mg/dL.
